Measurements published in paper PMC6385989, “Metformin Affects Heme Function as a Possible Mechanism of Action” (G3: Genes|Genomes|Genetics, 2018).

What was measured:
Test in all cases: absorbance of reduced form, protection from air oxidation, one-site fit
Format in all cases: binding
hemoglobin = biological target: T1, hemoglobin (Homo sapiens, UniProt P68871+P69905)
T1 construct: gene HBA1; commercial lyophilized hemoglobin with heme

myoglobin = biological target: T2, myoglobin (Homo sapiens, UniProt P02144)
T2 construct: gene MB; commercial protein with heme
T2 sequence (P02144 2-154): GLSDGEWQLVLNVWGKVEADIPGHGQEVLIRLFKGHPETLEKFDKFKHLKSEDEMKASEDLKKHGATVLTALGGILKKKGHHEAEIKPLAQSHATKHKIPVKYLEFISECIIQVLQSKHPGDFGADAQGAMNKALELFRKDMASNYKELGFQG

cytochrome c = biological target: T3, cytochrome c; conditions: PBS, 2 mM NH4OAc, ambient, 5 days; apparent, for retaining ferrous heme
T3 construct: gene CYCS; commercial reduced cytochrome c with heme

T1 sequence (P69905 2-142): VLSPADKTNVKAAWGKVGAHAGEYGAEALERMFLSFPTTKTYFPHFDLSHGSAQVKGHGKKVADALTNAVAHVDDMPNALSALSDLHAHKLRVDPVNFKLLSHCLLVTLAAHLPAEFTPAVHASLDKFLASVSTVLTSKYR
T1 sequence (P68871 2-147): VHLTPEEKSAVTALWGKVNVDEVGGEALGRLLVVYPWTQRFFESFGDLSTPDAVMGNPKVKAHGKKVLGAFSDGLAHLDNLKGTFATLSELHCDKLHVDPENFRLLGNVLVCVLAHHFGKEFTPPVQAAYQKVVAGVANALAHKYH

Kd (hemoglobin): 860 µM | Kd (myoglobin): 570 µM | Kd (cytochrome c): 1150 µM
Compound: CN(C)C(=N)NC(=N)N [metformin]
